# US9096591B2, “Tetracyclic compounds” (Medivation Technologies, Inc., priority 2007, dated 2015)
# Like-named read-outs stand apart in the source and are kept apart here.
# Columns and labels:
# [1] = target: T1, human recombinant histamine H1 receptor (Homo sapiens, UniProt P35367); experiment: Histamine H1 radioligand binding ([3H]Pyrilamine); conditions: for inhibition at 0.03 µM: 0.03 μM compound; for inhibition at 0.1 µM: 0.1 μM compound
# T1 construct: expressed in transfected cells; host or cells: CHO cells
# T1 sequence (P35367 whole entry): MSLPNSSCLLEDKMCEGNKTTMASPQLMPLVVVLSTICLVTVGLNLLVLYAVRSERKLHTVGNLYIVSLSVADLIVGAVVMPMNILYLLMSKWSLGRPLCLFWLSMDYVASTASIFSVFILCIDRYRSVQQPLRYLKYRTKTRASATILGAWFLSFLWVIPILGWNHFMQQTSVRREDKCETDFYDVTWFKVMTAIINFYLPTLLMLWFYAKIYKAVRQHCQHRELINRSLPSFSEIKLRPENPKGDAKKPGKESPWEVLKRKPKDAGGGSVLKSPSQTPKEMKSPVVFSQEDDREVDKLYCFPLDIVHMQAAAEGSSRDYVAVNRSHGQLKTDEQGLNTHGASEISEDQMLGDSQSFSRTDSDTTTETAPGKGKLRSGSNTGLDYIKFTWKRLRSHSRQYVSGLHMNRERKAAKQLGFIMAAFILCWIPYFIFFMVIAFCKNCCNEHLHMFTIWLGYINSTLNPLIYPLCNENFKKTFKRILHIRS
# Method: To evaluate in radioligand binding assays the activity of compounds of the invention, human recombinant histamine H1 receptor expressed in Chinese hamster ovary (CHO) cells (De Backer M D et al. Biochem. Biophys. Res Comm. 197(3):1601, 1993) in a modified Tris-HCl buffer (50 mM Tris-HCl, pH 7.4, 2 mM MgCl2, 100 mM NaCl, 250 mM Sucrose) were used. […] Non-specific binding was estimated in the presence of 1 μM pyrilamine. Receptor proteins were filtered and washed, the filters were then counted to determine [^3H]pyrilamine specifically bound. […] Biochemical assay results are presented as the percent inhibition of specific binding in Table 5.
# To evaluate in radioligand binding assays the activity of compounds of the invention, human recombinant histamine H1 receptor expressed in Chinese hamster ovary (CHO) cells (De Backer, M. D. et al., Biochem. Biophys. Res. Comm. 197(3):1601, 1993) in a modified Tris-HCl buffer (50 mM Tris-HCl, pH 7.4, 2 mM MgCl2, 100 mM NaCl, 250 mM Sucrose) was used. […] Non-specific binding was estimated in the presence of 1 μM pyrilamine. Receptor proteins were filtered and washed, the filters were then counted to determine [^3H]Pyrilamine specifically bound. Compounds were screened at 1 μM, using 1% DMSO as vehicle. Biochemical assay results are presented as the percent inhibition of specific binding in Table 6.
# [2] = target: T2, human recombinant adrenergic α2B receptor (Homo sapiens, UniProt P18089); experiment: Adrenergic α2B radioligand binding ([3H]Rauwolscine); parameters: Inhibition of ligand binding, Adren. alpha2B: concentration or dose not given beside the values; conditions: percent inhibition of specific binding
# T2 construct: expressed in transfected cells; host or cells: CHO-K1 cells
# T2 sequence (P18089 1-450): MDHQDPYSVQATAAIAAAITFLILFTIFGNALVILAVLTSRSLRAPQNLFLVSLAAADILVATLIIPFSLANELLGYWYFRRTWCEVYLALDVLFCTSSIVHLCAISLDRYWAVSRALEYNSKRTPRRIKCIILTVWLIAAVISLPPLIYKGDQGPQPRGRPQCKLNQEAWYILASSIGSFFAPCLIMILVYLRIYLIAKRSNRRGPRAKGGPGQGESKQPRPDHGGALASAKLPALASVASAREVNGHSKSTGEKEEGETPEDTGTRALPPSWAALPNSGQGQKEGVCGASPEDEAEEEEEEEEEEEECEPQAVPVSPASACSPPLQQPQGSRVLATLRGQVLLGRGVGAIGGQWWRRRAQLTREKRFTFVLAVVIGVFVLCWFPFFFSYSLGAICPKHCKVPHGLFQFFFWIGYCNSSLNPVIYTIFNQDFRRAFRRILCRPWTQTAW
# Method: To evaluate in radioligand binding assays the activity of compounds of the invention, human recombinant adrenergic α2B receptor expressed in Chinese hamster ovary (CHO-K1) cells (Uhlen S et al. Eur J. Pharmacol. 343(1):93, 1998) in a modified Tris-HCl buffer (50 mM Tris-HCl, pH 7.4, 12.5 mM MgCl2, 1 mM EDTA, 0.2% BSA) was used. Compounds of the invention were incubated with 2.5 nM [^3H]Rauwolscine for 60 minutes at 25° C. Non-specific binding was estimated in the presence of 10 μM Prozosin. Receptor proteins were filtered and washed, the filters were then counted to determine [^3H]Rauwolscine specifically bound. […] Biochemical assay results are presented as the percent inhibition of specific binding in Table 6.
# [3] = target: T3, human recombinant serotonin (5-Hydroxytryptamine) 5-HT2A receptor (Homo sapiens, UniProt P28223); experiment: Serotonin 5-HT2A radioligand binding ([3H]Ketanserin); conditions: percent inhibition of specific binding
# T3 construct: expressed in transfected cells; host or cells: CHO-K1 cells
# T3 sequence (P28223 whole entry): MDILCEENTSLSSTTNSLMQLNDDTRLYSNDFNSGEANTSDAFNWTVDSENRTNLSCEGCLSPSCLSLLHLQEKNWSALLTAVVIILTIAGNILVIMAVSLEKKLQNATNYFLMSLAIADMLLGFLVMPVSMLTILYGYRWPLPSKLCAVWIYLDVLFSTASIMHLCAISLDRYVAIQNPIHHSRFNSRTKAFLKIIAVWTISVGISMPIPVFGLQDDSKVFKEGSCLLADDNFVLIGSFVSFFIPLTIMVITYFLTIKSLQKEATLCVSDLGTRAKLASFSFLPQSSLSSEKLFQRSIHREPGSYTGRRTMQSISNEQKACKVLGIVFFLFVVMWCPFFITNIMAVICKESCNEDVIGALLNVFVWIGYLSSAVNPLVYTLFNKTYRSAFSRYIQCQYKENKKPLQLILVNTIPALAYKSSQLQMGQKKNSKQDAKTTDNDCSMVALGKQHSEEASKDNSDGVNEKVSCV
# Method: (§1) Compounds of the invention were incubated with 0.5 nM [^3H]Ketanserin for 60 minutes at 25° C. Non-specific binding was estimated in the presence of 1 μM Mianserin. Receptor proteins were filtered and washed, the filters were then counted to determine [^3H]Ketanserin specifically bound. […] Biochemical assay results are presented as the percent inhibition of specific binding in Table 6.
# [4] = target: T4, human recombinant serotonin (5-Hydroxytryptamine) 5-HT2C receptor (Homo sapiens, UniProt P28335); experiment: Serotonin 5-HT2C radioligand binding ([3H]Mesulergine); parameters: Inhibition of ligand binding, Ser. 5-HT2C: concentration or dose not given beside the values; conditions: percent inhibition of specific binding
# T4 construct: expressed in transfected cells; host or cells: CHO-K1 cells
# T4 sequence (P28335 33-458): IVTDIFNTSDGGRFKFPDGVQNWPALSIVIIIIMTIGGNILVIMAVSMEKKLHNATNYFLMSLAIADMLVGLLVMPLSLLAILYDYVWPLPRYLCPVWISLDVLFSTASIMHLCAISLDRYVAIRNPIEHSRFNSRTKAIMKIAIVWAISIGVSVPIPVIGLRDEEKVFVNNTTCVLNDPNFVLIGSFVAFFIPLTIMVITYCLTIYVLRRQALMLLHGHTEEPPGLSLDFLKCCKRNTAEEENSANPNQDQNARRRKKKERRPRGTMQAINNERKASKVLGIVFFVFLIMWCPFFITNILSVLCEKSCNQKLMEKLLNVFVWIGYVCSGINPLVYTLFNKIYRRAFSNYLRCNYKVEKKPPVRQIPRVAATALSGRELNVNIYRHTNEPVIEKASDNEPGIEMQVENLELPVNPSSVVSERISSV
# Method: as §1, with “1” for “0.5”, “[^3H]Mesulergine” for “[^3H]Ketanserin”
# [5] = target: T5, human recombinant serotonin (5-Hydroxytryptamine) 5-HT6 receptor (Homo sapiens, UniProt P50406); experiment: Serotonin 5-HT6 radioligand binding ([3H]LSD); parameters: Inhibition of ligand binding, Ser. 5-HT6: concentration or dose not given beside the values; conditions: percent inhibition of specific binding
# T5 construct: expressed in transfected cells; host or cells: human HeLa cells
# T5 sequence (P50406 whole entry): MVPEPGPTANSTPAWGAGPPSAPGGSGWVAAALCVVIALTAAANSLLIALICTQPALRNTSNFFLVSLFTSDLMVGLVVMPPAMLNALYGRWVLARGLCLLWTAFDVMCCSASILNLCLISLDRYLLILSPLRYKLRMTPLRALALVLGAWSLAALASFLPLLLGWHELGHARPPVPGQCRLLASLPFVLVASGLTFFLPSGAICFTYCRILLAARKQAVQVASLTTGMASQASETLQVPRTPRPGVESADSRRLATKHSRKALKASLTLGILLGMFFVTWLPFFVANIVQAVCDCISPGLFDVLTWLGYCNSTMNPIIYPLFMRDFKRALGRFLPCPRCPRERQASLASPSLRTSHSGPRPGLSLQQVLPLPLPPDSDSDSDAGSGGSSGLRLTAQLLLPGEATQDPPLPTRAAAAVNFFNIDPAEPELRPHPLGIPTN
# Excerpt: Receptor proteins were filtered and washed, the filters were then counted to determine [3H]LSD specifically bound. […] Biochemical assay results are presented as the percent inhibition of specific binding in Table 6.
# [6] = […] [3H]Pyrilamine, read-out: Histamine Binding H1, percent inhibition of specific binding
# [7] = 1 μM compound, […] [3H]Pyrilamine, read-out: Histamine Binding H1, percent inhibition of specific binding
# [8] = percent inhibition of specific binding, screened at 1 μM, read-out: Inhibition of ligand binding, Hist. H1
SMILES,"inhibition at 0.03 µM [1, 6] [%]","inhibition at 0.1 µM [1, 6] [%]","inhibition at 1 µM [1, 7] [%]","inhibition at 1 µM [1, 8] [%]","Inhibition of ligand binding, Adren. alpha2B [2] [%]","Inhibition of ligand binding, Ser. 5-HT2A [3] [%]","Inhibition of ligand binding, Ser. 5-HT2C [4] [%]","Inhibition of ligand binding, Ser. 5-HT6 [5] [%]"
"CCN1CCc2c(c3ccccc3n2CCc2ccccc2)C1 [Compound 4, 2-ethyl-2,3,4,5-tetrahydro-5-phenethyl-1H-pyrido[4,3-b]indole]",47,73,93,93,106,102,94,82
"Cc1ccc2c(c1)c1c(n2Cc2ccccc2)CCN(C)C1 [Compound 137, 5-benzyl-2,3,4,5-tetrahydro-2,8-dimethyl-1H-pyrido[4,3-b]indole]",,,11,11,3,−2,10,12
"Cc1ccc(Cn2c3c(c4ccccc42)CN(C)CC3)cn1 [Compound 17, 2,3,4,5-tetrahydro-2-methyl-5-((6-methylpyridin-3-yl)methyl)-1H-pyrido[4,3-b]indole]",,,15,15,9,−7,8,0
"CCN1CCc2c(c3ccccc3n2CCc2ccc(C)cc2)C1 [Compound 3, 2-ethyl-2,3,4,5-tetrahydro-5-(4-methylphenethyl)-1H-pyrido[4,3-b]indole]",,,88,88,102,98,82,40
"CCN1CCc2c(c3cc(C)ccc3n2CCc2ccc(C)nc2)C1 [Compound 31, 2-ethyl-2,3,4,5-tetrahydro-8-methyl-5-(2-(6-methylpyridin-3-yl)ethyl)-1H-pyrido[4,3-b]indole]",,,100,100,91,65,39,64
"CCN1CCc2c(c3cc(C)ccc3n2Cc2ccccc2)C1 [Compound 140, 5-benzyl-2-ethyl-2,3,4,5-tetrahydro-8-methyl-1H-pyrido[4,3-b]indole]",,,15,15,−4,−3,−10,8
"Cc1ccc2c(c1)c1c(n2CCCc2ccccn2)CCN(C)C1 [Compound 233, 2,3,4,5-tetrahydro-2,8-dimethyl-5-(3-(pyridin-2-yl)propyl)-1H-pyrido[4,3-b]indole]",,,99,99,96,92,93,95
"Cc1ccc(CCn2c3c(c4cc(C(=O)O)ccc42)CNCC3)cn1 [Compound 274, 2,3,4,5-tetrahydro-5-(2-(6-methylpyridin-3-yl)ethyl)-1H-pyrido[4,3-b]indole-8-carboxylic acid]",,,,1,9,6,−5,−2
"CCN1CCc2c(c3cc(C)ccc3n2CCc2ccncc2)C1 [Compound 27, 2-ethyl-2,3,4,5-tetrahydro-8-methyl-5-(2-(pyridin-4-yl)ethyl)-1H-pyrido[4,3-b]indole]",58,77,99,99,100,63,29,38
"CCN1CCc2c(c3ccccc3n2Cc2ccccc2)C1 [Compound 16, 5-benzyl-2-ethyl-2,3,4,5-tetrahydro-1H-pyrido[4,3-b]indole]",,,10,10,10,14,5,6
CCN1CCc2c(c3ccccc3n2CCc2ccccn2)C1 [Compound 6],,,32,32,54,74,34,7
"Cc1ccc2c(c1)c1c(n2Cc2ccc(C)nc2)CCN(C)C1 [Compound 139, 2,3,4,5-tetrahydro-2,8-dimethyl-5-((6-methylpyridin-3-yl)methyl)-1H-pyrido[4,3-b]indole]",,,81,74,52,2,0,39
"CCN1CCc2c(c3cc(C)ccc3n2CCc2ccccn2)C1 [Compound 23, 2-ethyl-2,3,4,5-tetrahydro-8-methyl-5-(2-(pyridin-2-yl)ethyl)-1H-pyrido[4,3-b]indole]",,,69,69,97,78,53,47
